Results published in ChEMBL document CHEMBL1201862, “PubChem BioAssay data set” (2004).
One block for each compound: values may come before it. Active and inactive are the calls of the source.

Key:
[1] = molecular target: FAD-linked sulfhydryl oxidase ALR (Homo sapiens, UniProt P55789); experiment: inhibitors of human ALR sulfhydryl oxidase, dose response, biochemical, H2O2 detection, luminescence, cherry-pick (AID 493248)
[2] = molecular target: Mitogen-activated protein kinase 10 (Homo sapiens, UniProt P53779); experiment: Dose response biochemical screening assay for inhibitors of c-Jun N-Terminal Kinase 3 (JNK3). [Related pubchem assays: 746 ]
Sequence of Mitogen-activated protein kinase 10 (P53779 whole entry): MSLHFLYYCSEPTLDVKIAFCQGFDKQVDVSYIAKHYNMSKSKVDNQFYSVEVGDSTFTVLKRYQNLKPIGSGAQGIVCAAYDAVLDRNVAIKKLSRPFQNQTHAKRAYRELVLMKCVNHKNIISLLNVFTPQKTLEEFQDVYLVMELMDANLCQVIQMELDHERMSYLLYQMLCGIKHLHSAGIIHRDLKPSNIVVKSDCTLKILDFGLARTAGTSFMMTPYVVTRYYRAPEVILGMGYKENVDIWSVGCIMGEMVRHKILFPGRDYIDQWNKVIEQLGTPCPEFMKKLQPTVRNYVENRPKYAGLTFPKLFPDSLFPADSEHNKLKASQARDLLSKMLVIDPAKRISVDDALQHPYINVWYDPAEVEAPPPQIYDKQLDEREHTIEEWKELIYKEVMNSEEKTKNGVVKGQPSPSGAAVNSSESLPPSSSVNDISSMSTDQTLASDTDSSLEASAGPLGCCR

[3] = molecular target: T1, Heat shock factor protein 1 (Mus musculus, UniProt P38532); experiment: HSF1 potentiators in luciferase reporter cells, confirmation, cell-based, NIH3T3, luminescence, dose retest (AID 435004); type: functional;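 note: stress induced by proteasome inhibitor MG132 added 30 min after compound; luciferase reporter driven by HSF1 response element in NIH3T3 cells; actives raise luminescence as potentiators of the MG132 stress response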
T1 sequence (P38532 whole entry): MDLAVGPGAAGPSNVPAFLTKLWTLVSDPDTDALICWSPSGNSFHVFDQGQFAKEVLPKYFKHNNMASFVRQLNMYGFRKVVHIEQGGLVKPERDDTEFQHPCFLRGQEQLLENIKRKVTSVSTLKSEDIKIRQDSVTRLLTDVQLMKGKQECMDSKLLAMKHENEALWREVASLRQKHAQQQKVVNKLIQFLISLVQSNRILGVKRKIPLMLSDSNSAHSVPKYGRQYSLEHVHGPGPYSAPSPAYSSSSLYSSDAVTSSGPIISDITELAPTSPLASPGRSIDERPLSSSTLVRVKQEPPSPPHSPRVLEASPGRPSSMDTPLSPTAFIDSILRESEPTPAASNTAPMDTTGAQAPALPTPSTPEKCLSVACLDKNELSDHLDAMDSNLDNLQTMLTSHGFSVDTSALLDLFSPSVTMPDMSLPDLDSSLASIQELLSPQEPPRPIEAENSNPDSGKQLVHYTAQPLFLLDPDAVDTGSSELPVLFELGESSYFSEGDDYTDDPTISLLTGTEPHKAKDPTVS

[4] = molecular target: Caspase-6 (Homo sapiens, UniProt P55212); experiment: human caspase-6 inhibitors, dose response, biochemical, VEID-R110 fluorescence, cherry-pick (AID 720632)
Sequence of Caspase-6 (P55212 24-179 limits assumed): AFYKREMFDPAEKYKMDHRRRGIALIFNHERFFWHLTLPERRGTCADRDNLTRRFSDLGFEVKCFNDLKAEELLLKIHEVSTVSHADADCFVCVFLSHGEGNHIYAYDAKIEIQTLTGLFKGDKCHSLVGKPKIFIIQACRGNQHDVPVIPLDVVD
Sequence of Caspase-6 (P55212 194-293 limits assumed): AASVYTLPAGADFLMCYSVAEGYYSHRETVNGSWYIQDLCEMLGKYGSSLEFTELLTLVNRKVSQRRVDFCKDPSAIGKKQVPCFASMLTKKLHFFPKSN

[5] = molecular target: T2, Aminopeptidase N (Plasmodium falciparum FcB1/Columbia, UniProt O96935); experiment: P. falciparum M1AAP inhibitors, biochemical, fluorogenic H-Leu-NHMec substrate, 1536-well (AID 1445); parameters: species or system Plasmodium falciparum 3D7, 3D7
T2 sequence (O96935 whole entry): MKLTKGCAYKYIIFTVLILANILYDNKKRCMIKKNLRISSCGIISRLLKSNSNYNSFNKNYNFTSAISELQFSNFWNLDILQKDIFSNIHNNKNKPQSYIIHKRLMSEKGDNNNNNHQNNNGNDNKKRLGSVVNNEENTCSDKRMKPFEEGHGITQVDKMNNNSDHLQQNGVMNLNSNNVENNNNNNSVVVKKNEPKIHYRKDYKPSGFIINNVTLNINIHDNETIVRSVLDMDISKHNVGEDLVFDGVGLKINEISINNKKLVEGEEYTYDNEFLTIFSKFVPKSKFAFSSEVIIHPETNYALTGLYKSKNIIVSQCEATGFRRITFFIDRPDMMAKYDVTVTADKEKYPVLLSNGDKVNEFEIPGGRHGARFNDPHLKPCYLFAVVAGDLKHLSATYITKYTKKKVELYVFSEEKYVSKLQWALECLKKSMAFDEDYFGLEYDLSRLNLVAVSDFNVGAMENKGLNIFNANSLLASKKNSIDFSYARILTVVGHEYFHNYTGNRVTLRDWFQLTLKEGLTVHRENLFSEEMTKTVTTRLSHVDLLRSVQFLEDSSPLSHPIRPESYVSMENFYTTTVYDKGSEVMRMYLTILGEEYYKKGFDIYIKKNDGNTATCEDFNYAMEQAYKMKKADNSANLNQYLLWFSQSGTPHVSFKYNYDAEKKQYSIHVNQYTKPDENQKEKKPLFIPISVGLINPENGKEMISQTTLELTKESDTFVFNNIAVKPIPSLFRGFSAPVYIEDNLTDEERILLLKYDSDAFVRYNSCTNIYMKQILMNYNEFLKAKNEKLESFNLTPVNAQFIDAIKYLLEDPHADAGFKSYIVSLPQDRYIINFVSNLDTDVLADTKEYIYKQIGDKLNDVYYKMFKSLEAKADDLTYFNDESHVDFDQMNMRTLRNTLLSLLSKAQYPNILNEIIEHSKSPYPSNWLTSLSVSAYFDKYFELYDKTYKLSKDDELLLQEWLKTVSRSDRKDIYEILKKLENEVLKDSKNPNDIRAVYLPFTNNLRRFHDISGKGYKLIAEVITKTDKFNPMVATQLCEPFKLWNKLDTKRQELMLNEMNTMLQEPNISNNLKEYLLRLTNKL

[6] = HEp-2 cell cytotoxicity, dose response, cytotoxicity control for RSV inhibitor project, HTS (AID 2410); type: functional; conditions: human respiratory syncytial virus
[7] = reduction of Shn3 3'UTR firefly luciferase signal, dose response, Schnurri-3 inhibitor project, cell-based, Clone20 osteoblasts, cherry-pick, set 2 (AID 720490); type: functional;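 note: actives lower the luminescence signal as inhibitors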
[8] = Shn3 3'UTR reporter inhibitors, dose response, cell-based, Clone20 osteoblasts, firefly luciferase, cherry-picked (AID 624132); type: functional;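 note: firefly luciferase luminescence from reporter carrying the Shn3 3'UTR in osteoblasts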
[9] = control 3'UTR Renilla luciferase suppression, dose response, counter-screen for Shn3 inhibitor project, cell-based, Clone20-Shn3RL, cherry-picked (AID 624133); type: functional
[10] = HepG2 cell cytotoxicity, dose response, cytotoxicity control for Shn3 inhibitor project, CellTiter-Glo, cherry-picked (AID 624134); type: functional, cell-based
[11] = non-specific cell cytotoxicity, dose response, cytotoxicity control for PAX8 inhibitor project, plate reader, dry powder samples (AID 743021); type: functional, cell-based
[12] = inhibitors of PGC1a acetylation in cells, dose response, cell-based, cherry-picked samples (AID 720514); type: functional;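 note: potency may reflect raised or lowered acetylation signal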
[13] = molecular target: Paired box protein Pax-8 (Homo sapiens, UniProt Q06710); experiment: inhibitors of PAX8-driven TPO luciferase reporter, dose response, RMG-I cells, cherry-pick (AID 687027); type: functional, cell-based;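 note: luciferase reporter driven by Pax8 target thyroperoxidase promoter measured by SteadyGlo luminescence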
Sequence of Paired box protein Pax-8 (Q06710 whole entry): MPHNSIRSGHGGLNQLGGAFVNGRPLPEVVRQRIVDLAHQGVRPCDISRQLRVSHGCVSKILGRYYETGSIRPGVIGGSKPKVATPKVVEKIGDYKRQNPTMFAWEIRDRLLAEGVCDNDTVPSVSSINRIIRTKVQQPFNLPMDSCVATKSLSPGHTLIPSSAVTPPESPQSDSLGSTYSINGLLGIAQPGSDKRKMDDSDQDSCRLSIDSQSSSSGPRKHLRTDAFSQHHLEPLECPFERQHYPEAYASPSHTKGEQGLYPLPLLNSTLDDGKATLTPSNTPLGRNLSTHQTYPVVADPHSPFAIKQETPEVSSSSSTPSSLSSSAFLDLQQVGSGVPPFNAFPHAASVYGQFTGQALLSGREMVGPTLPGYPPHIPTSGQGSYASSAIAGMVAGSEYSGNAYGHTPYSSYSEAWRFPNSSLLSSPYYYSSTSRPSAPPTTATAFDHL

[14] = inhibitors of control Renilla luciferase reporter, dose response, counter-screen for Shn3 3'UTR targeting project, Clone20-Shn3RL cells, dual-Glo, cherry-pick, set 2 (AID 720724); type: functional, cell-based; conditions: Dual-Go Shn3RL
[15] = molecular target: Cytochrome P450 2C19 (Homo sapiens, UniProt P33261); experiment: qHTS Assay for Inhibitors and Substrates of Cytochrome P450 2C19. [Related pubchem assays: 410 ]; type: ADME; conditions: read-out: Potency
Sequence of Cytochrome P450 2C19 (P33261 whole entry): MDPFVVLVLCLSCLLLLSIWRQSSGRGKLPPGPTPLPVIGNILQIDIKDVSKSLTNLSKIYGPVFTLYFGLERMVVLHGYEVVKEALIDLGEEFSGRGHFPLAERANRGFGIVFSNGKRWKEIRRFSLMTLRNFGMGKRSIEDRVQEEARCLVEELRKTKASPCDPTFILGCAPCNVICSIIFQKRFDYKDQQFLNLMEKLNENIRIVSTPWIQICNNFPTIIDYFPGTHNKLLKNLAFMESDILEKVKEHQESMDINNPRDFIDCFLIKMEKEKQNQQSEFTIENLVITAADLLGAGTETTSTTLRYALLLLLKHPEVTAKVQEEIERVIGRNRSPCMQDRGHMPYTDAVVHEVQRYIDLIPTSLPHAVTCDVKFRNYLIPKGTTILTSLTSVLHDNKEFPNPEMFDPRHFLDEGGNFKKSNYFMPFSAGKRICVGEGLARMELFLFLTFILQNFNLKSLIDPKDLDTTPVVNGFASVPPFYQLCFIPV

Sequence of FAD-linked sulfhydryl oxidase ALR (P55789 whole entry): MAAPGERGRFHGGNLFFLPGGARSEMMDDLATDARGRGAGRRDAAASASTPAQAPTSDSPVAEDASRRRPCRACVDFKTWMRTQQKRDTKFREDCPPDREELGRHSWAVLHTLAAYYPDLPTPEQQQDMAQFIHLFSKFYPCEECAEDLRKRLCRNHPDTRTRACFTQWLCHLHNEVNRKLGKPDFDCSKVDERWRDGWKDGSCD

Structure (SMILES): CCOC(=O)COc1ccc(Br)cc1/C=C/c1nc(O)nc(O)c1[N+](=O)[O-]
EC50 [3]: 15.6 µM (active) | AC50 [4]: 5.09 µM (active) | IC50 [5]: 25.4 µM (active) | CC50 [6]: 12.7 µM (active)

Structure (SMILES): Oc1nc2ccccc2n1C1CCN(C(CCc2ccccc2)c2nnnn2Cc2ccccc2)CC1 (stereo unspecified)
AC50 [7]: 3.97 µM (active) | AC50 [8]: 1.23 µM (active) | AC50 [9]: 60.9 µM (active) | AC50 [10]: 13.5 µM (active) | AC50 [11]: 11.4 µM (active) | AC50 [12]: 3.88 µM (active) | AC50 [13]: 1.4 µM (active) | AC50 [14]: 20.3 µM (active)

Structure (SMILES): O=C(Cc1cccs1)N1Cc2ccccc2-n2nncc2C1
AC50 [4]: 5.36 µM (active)

Other lines, results leading:

AC50 [1]: 0.773 µM (active) | IC50 [2]: 18.4 µM (not active)
Structure (SMILES): c1ccc(Nc2ccccc2Nc2ccccn2)nc1

AC50 [15]: 15.8 µM (inconclusive)
Structure (SMILES): O=c1cc(-c2ccc(O)c(O)c2)oc2cccc(O)c12
